# Columns and labels:
# isolated rat aorta = assay: Calcium antagonism: contractile response of isolated rat aorta to calcium chloride; assay type: cell-based; settings: test compound 5 nM
# Procedure: An isolated rat aorta was suspended in a calcium-free and high potassium Krebs-Henseleit solution maintained at a temperature of 37° C. The contractile response of the aorta to calcium chloride in concentrations ranging from 10^-5 to 10^-2 M was recorded by means of an isometric transducer. The dose-response curve of the aorta was obtained before and after addition of a test compound at a concentration of 5 nM. Addition of the test compound shifted the dose-response curve to the right, the magnitude of the shift depending upon the potency of the Ca^++ -blocking activity.
# [1] = system: spontaneously hypertensive rats of the SHR strain; assay: Antihypertensive activity in conscious spontaneously hypertensive rats (blood pressure and heart rate); settings: po; for 12 Hour Area (integrated value of the area above the graph of blood pressure change against time): 12 hours after administration
# Procedure: The test animals were spontaneously hypertensive rats of the SHR strain, each aged about 15 weeks. The antihypertensive activities of the test compounds were determined in these rats as follows.
# Each animal was anaesthetized with sodium pentobarbital (50 mg/kg, intraperitoneally) and a polyethylene cannula was inserted into the abdominal aorta by the method of Weeks and Jones [J. R. Weeks and J. A. Jones, Proc. Soc. Exptl. […] The other end of the cannula left the animal's body at, and was fixed to, the neck. About 1 week after this surgery, when the animal had completely recovered from surgical stress, the free end of the aortic cannula was connected to a sphygmomanmeter to measure blood pressure and heart rate of the animal directly in the conscious, aparalytic and unrestrained state.
# At this time, a test compound suspended in a 0.3% w/v aqueous carboxymethylcellulose solution was administered orally in the dose shown in the following Table 8.
# Tmax : the time in hours after administration of the compound under test before the maximum change in blood pressure was recorded;
# To 0.5 max : the time in hours after administration of the compound under test which is required for the blood pressure to return to one half of its maximum value;
# [2] = SHR, compared with nifedipine and nicardipine
Structure (SMILES),"T0.5 max (time after administration for the blood pressure to return to one half of its maximum value) ([1]; 1 mg/kg, SHR) [h]","Tmax (time after administration before the maximum change in blood pressure) ([1]; 1 mg/kg, SHR) [h]","12 Hour Area (integrated value of the area above the graph of blood pressure change against time) ([1]; 1 mg/kg, SHR)","12 Hour Area (integrated value of the area above the graph of blood pressure change against time) ([1]; 3 mg/kg, SHR)",further results
"CC1=C(C(=O)OC(C)C)C(c2cccc([N+](=O)[O-])c2)C(C(=O)OC2CN(C(c3ccccc3)c3ccccc3)C2)=C(N)N1 (stereo not drawn) [Compound 1-11, 3-(1-Benzhydryl-3-azetidinyl) 5-isopropyl 2-amino-6-methyl-4-(3-nitrophenyl)-1,4-dihydropyridine-3,5-dicarboxylate]",10.4,6.0,-184,-334,"duration of activity (calcium antagonism) (isolated rat aorta; isolated rat aorta): excellent duration of activity; rightwards shift of the calcium chloride dose-response curve (Ca++-blocking activity) (isolated rat aorta; calcium-free high potassium Krebs-Henseleit solution, 37° C): comparable with that of nifedipine; Tmax (time after administration before the maximum change in blood pressure) ([1]; 3 mg/kg, SHR): 5.0 h; duration of the antihypertensive activity [1, 2]: much longer than that produced by nifedipine and nicardipine; time of onset of activity / speed of lowering blood pressure [1, 2]: lowered blood pressure much more slowly than did nifedipine or nicardipine; heart rate ([1]; rat, in vivo): (but not Compound 1-11) increased heart rate"
"CC1=C(C(=O)OC(C)C)C(c2cccc(Cl)c2Cl)C(C(=O)OC2CN(C(c3ccccc3)c3ccccc3)C2)=C(N)N1 (stereo not drawn) [Compound 1-59, 3-(1-Benzhydryl-3-azetidinyl) 5-isopropyl 2-amino-4-(2,3-dichlorophenyl)-6-methyl-1,4-dihydropyridine-3,5-dicarboxylate]",12.0,6.0,-203,–,–
"CC1=C(C(=O)OC(C)C)C(c2cccc([N+](=O)[O-])c2)C(C(=O)OC2CN(C(c3ccc(F)cc3)c3ccc(F)cc3)C2)=C(N)N1 (stereo not drawn) [Compound 1-68, 3-[1-(4,4'-Difluorobenzhydryl)-3-azetidinyl]5-isopropyl 2-amino-6-methyl-4-(3-nitrophenyl)-1,4-dihydropyridine-3,5-dicarboxylate]",11.8,7.0,-218,–,–
"CC1=C(C(=O)OC(C)C)C(c2cccc([N+](=O)[O-])c2)C(C(=O)OC2CCN(C(c3ccccc3)c3ccccc3)C2)=C(N)N1 (stereo not drawn) [Compound 2-8, 3-(1-Benzhydryl-3-pyrrolidinyl) 5-isopropyl 2-amino-6-methyl-4-(3-nitrophenyl)-1,4-dihydropyridine-3,5-dicarboxylate]",11.2,6.0,-172,–,–
"CC1=C(C(=O)OC(C)C)C(c2cccc([N+](=O)[O-])c2)C(C(=O)OC2CCCN(C(c3ccccc3)c3ccccc3)C2)=C(N)N1 (stereo not drawn) [Compound 3-8, 3-(1-Benzhydryl-3-piperidyl) 5-isopropyl 2-amino-6-methyl-4-(3-nitrophenyl)-1,4-dihydropyridine-3,5-dicarboxylate]",11.4,7.0,-141,–,–
"COC(=O)C1=C(C)NC(C)=C(C(=O)OCCN(C)Cc2ccccc2)C1c1cccc([N+](=O)[O-])c1 (stereo not drawn) [nicardipine, reference compound]",–,–,–,-175,"T0.5 max (time after administration for the blood pressure to return to one half of its maximum value) ([1]; 3 mg/kg, SHR): 5.3 h; Tmax (time after administration before the maximum change in blood pressure) ([1]; 3 mg/kg, SHR): 0.5 h"
"COC(=O)C1=C(C)NC(C)=C(C(=O)OC)C1c1ccccc1[N+](=O)[O-] [nifedipine, reference compound]",–,–,–,-237,heart rate ([1]; SHR): increased heart rate
